Results from patent US20260250290A1 (BRISTOL-MYERS SQUIBB COMPANY, priority 2023, published 2026).
Counter-ions that a name gives are not always drawn.

target: T1, SGK1 (Homo sapiens, UniProt O00141); experiment: SGK1 inhibition Assay B (Echo mass spectrometry of phosphorylated peptide product); type: biochemical; conditions: 60 min at room temperature
T1 sequence (O00141 1-431): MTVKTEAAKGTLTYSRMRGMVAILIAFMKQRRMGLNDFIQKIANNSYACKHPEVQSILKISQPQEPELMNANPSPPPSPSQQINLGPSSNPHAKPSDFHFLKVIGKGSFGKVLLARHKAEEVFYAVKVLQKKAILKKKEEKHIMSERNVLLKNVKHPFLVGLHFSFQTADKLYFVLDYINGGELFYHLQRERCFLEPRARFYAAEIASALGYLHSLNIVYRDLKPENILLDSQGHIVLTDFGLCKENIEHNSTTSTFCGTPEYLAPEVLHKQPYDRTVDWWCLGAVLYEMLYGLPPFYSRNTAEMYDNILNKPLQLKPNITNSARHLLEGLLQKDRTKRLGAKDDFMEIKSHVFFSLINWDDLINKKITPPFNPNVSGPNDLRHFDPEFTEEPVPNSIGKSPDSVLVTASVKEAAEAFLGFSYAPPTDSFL

Compound | IC50 [nM]
Cc1nc(O[C@@H]2CC[C@H]3[C@H](CCN3C)C2)c(C(=O)N[C@@H]2CCCN(c3cc(-c4ccc(C(N)=O)c(F)c4)n4ncnc(N)c34)C2)s1 [Example 918, 4-{[(3aR,5R,7aS)-1-methyl-octahydro-1H-indol-5-yl]oxy}-N-[(3R)-1-[4-amino-7-(4-carbamoyl-3-fluorophenyl)pyrrolo[2,1-f][1,2,4]triazin-5-yl]piperidin-3-yl]-2-methyl-1,3-thiazole-5-carboxamide] | 2
Cc1nc(O[C@@H]2C[C@H]3CC[C@@H](C2)N3)c(C(=O)N[C@@H]2CCCN(c3cc(-c4ccc5c(c4)OCCNC5=O)n4ncnc(N)c34)C2)s1 [Example 966, 4-(((1R,3s,5S)-8-azabicyclo [3.2.1]octan-3-yl)oxy)-N—((R)-1-(4-amino-7-(5-oxo-2,3,4,5-tetrahydrobenzo[f][1,4]oxazepin-8-yl)pyrrolo[2,1-f][1,2,4]triazin-5-yl)piperidin-3-yl)-2-methylthiazole-5-carboxamide] | 8
Cc1nc(O[C@H]2CC[C@@H](CNCC(C)(C)C)CC2)c(C(=O)N[C@@H]2CCCN(c3cc(-c4ccc(C(N)=O)c(F)c4)n4ncnc(N)c34)C2)s1 [Example 945, N—((R)-1-(4-Amino-7-(4-carbamoyl-3-fluorophenyl)pyrrolo[2,1-f][1,2,4]triazin-5-yl)piperidin-3-yl)-2-methyl-4-(((cis)-4-((neopentylamino)methyl)cyclohexyl)oxy)thiazole-5-carboxamide] | 4
CC(C)N1CC2(CN(c3cccc(C(=O)N[C@@H]4CCCN(c5cc(-c6ccc(C#N)nc6)n6ncnc(N)c56)C4)n3)C2)C1 [Example 817, (R)-N-(1-(4-amino-7-(6-cyanopyridin-3-yl)pyrrolo[2,1-f][1,2,4]triazin-5-yl)piperidin-3-yl)-6-(6-isopropyl-2,6-diazaspiro[3.3]heptan-2-yl)picolinamide] | 14
Cc1nc(O[C@@H]2C[C@H]3CC[C@@H](C2)N3C)c(C(=O)N[C@@H]2CCCN(c3cc(-c4csc(C(C)O)c4)n4ncnc(N)c34)C2)s1 (stereo partly drawn) [Example 928, N-((3R)-1-(4-amino-7-(5-(1-hydroxyethyl)thiophen-3-yl)pyrrolo[2,1-f][1,2,4]triazin-5-yl)piperidin-3-yl)-2-methyl-4-(((1R,3s,5S)-8-methyl-8-azabicyclo[3.2.1]octan-3-yl)oxy)thiazole-5-carboxamide, TFA salt] | 0.1
Cc1nc(O[C@@H]2C[C@H]3CC[C@@H](C2)N3CCO)c(C(=O)N[C@@H]2CCCN(c3cc(-c4ccc(-n5cnnn5)c(F)c4)n4ncnc(N)c34)C2)s1 [Example 960, N—((R)-1-(4-amino-7-(3-fluoro-4-(1H-tetrazol-1-yl)phenyl)pyrrolo[2,1-f][1,2,4]triazin-5-yl)piperidin-3-yl)-4-(((1R,3s,5S)-8-(2-hydroxyethyl)-8-azabicyclo [3.2.1]octan-3-yl)oxy)-2-methylthiazole-5-carboxamide] | 1
CC(C)N1CC2(CN(c3cccc(C(=O)N[C@@H]4CCCN(c5cc(-c6ccc7cnn(C)c7c6)n6ncnc(N)c56)C4)n3)C2)C1 [Example 821, (R)-N-(1-(4-amino-7-(1-methyl-1H-indazol-6-yl)pyrrolo[2,1-f][1,2,4]triazin-5-yl)piperidin-3-yl)-6-(6-isopropyl-2,6-diazaspiro[3.3]heptan-2-yl)picolinamide] | 69
COC(=O)N1CC=C(c2cc(N3CCC[C@@H](NC(=O)c4cccc(N5CC6(C5)CN(C(C)C)C6)n4)C3)c3c(N)ncnn23)C1 [Example 819, methyl (R)-3-(4-amino-5-(3-(6-(6-isopropyl-2,6-diazaspiro[3.3]heptan-2-yl)picolinamido)piperidin-1-yl)pyrrolo[2,1-f][1,2,4]triazin-7-yl)-2,5-dihydro-1H-pyrrole-1-carboxylate] | 21
Cc1nc(OC2CCC(N3CC(O)C3)CC2)c(C(=O)N[C@@H]2CCCN(c3cc(C4=CC(=O)OC4)n4ncnc(N)c34)C2)s1 (stereo partly drawn) [Example 997, (R)-N-(1-(4-amino-7-(5-oxo-2,5-dihydrofuran-3-y1)pyrrolo[2,1-f] [1,2,4]triazin-5-y1)piperidin-3-y1)-4-((4~(3-hydroxyazetidin-1-yl)cyclohexyl)oxy)-2-methylthiazole-5-carboxamide] | 0.6
CC(C)N1CC2CCC1CC2Oc1cc(Cl)sc1C(=O)N[C@@H]1CCCN(c2cc(-c3ccc(-n4cnnn4)nc3)n3ncnc(N)c23)C1 (stereo partly drawn) [Example 989, N—((R)-1-(7-(6-(1H-tetrazol-1-yl)pyridin-3-yl)-4-aminopyrrolo[2,1-f][1,2,4]triazin-5-yl)piperidin-3-yl)-5-chloro-3-((2-isopropyl-2-azabicyclo[2.2.2]octan-5-yl)oxy)thiophene-2-carboxamide] | 0.9
COCC(C)(C)NC1CCC(Oc2nc(C)sc2C(=O)N[C@@H]2CCCN(c3cc(C4=CC(=O)OC4)n4ncnc(N)c34)C2)CC1 (stereo partly drawn) [Example 1000, (R)—N-(1-(4-amino-7-(5-oxo-2,5-dihydrofuran-3-yl)pyrrolo[2,1-f][1,2,4]triazin-5-yl)piperidin-3-yl)-4-((4-((1-methoxy-2-methylpropan-2-yl)amino)cyclohexyl)oxy)-2-methylthiazole-5-carboxamide] | 0.7
CN1CCN(c2nccc(C(=O)N[C@@H]3CCCN(c4cc(-c5cc(F)c(-n6cnnn6)cc5F)n5ncnc(N)c45)C3)n2)CC1 [Example 853, (R)-N-(1-(4-amino-7-(2,5-difluoro-4-(1H-tetrazol-1-yl)phenyl)pyrrolo[2,1-f][1,2,4]triazin-5-yl)piperidin-3-y1)-2-(4-methylpiperazin-1-yl)pyrimidine-4-carboxamide] | 12
Cc1nc(OC2COC3(CCNCC3)C2)c(C(=O)N[C@@H]2CCCN(c3cc(-c4ccc(C(N)=O)c(F)c4)n4ncnc(N)c34)C2)s1 (single isomer, unassigned) [Example 954] | 4
CC(C)N1CC2(CN(c3cccc(C(=O)N[C@@H]4CCCN(c5cc(-c6ccc(-n7cnnn7)c(F)c6F)n6ncnc(N)c56)C4)n3)C2)C1 [Example 823, (R)-N-(1-(4-amino-7-(2,3-difluoro-4-(1H-tetrazol-1-yl)phenyl)pyrrolo[2,1-f][1,2,4]triazin-5-yl)piperidin-3-yl)-6-(6-isopropyl-2,6-diazaspiro[3.3]heptan-2-yl)picolinamide] | 18
CN1CCN(c2nccc(C(=O)N[C@@H]3CCCN(c4cc(-c5cnc(-n6cnnn6)nc5)n5ncnc(N)c45)C3)n2)CC1 [Example 856, (R)-N-(1-(7-(2-(1H-tetrazol-1-yl)pyrimidin-5-yl)-4-aminopyrrolo[2,1-f][1,2,4]triazin-5-yl)piperidin-3-yl)-2-(4-methylpiperazin-1-yl)pyrimidine-4-carboxamide] | 16

The next lines start with the values.

IC50 [nM] | Compound
1.7 | Cc1nc(OC2CCC(N3CCC3)CC2)c(C(=O)N[C@@H]2CCCN(c3cc(-c4ccc(C(N)=O)c(F)n4)n4ncnc(N)c34)C2)s1 (stereo partly drawn) [Example 1041, (R)—N-(1-(4-amino-7-(5-carbamoyl-6-fluoropyridin-2-yl)pyrrolo[2,1-f][1,2,4]triazin-5-yl)piperidin-3-yl)-4-((4-(azetidin-1-yl)cyclohexyl)oxy)-2-methylthiazole-5-carboxamide]
0.8 | CC[C@H](CO)NC1CCC(Oc2nc(C)sc2C(=O)N[C@@H]2CCCN(c3cc(-c4csc(C(=O)NC)n4)n4ncnc(N)c34)C2)CC1 (stereo partly drawn) [Example 1053, 4-(4-amino-5-((R)-3-(4-((4-(((R)-1-hydroxybutan-2-yl)amino)cyclohexyl)oxy)-2-methylthiazole-5-carboxamido)piperidin-1-yl)pyrrolo[2,1-f][1,2,4]triazin-7-yl)-N-methylthiazole-2-carboxamide]
0.9 | Cc1nc(OC2CCC(N3CC(O)C3)CC2)c(C(=O)N[C@@H]2CCCN(c3cc(-c4ccc(C(N)=O)c(F)c4)n4ncnc(N)c34)C2)s1 (stereo partly drawn) [Example 1039, (R)—N-(1-(4-amino-7-(4-carbamoyl-3-fluorophenyl)pyrrolo[2,1-f][1,2,4]triazin-5-yl)piperidin-3-yl)-4-((4-(3-hydroxyazetidin-1-yl)cyclohexyl)oxy)-2-methylthiazole-5-carboxamide]
1.1 | CNC(=O)c1ccc(-c2cc(N3CCC[C@@H](NC(=O)c4sc(C)nc4O[C@H]4CC[C@@H](N(C)C)CC4)C3)c3c(N)ncnn23)nc1OC [Example 1058, N—((R)-1-(4-amino-7-(6-methoxy-5-(methylcarbamoyl)pyridin-2-yl)pyrrolo[2,1-f][1,2,4]triazin-5-yl)piperidin-3-yl)-4-(((1S,4S)-4-(dimethylamino)cyclohexyl)oxy)-2-methylthiazole-5-carboxamide]
1.7 | COC[C@@H](C)NC1CCC(Oc2nc(C)sc2C(=O)N[C@@H]2CCCN(c3cc(-c4ccc(C(N)=O)c(F)n4)n4ncnc(N)c34)C2)CC1 (stereo partly shown) [Example 1040]
0.6 | CCC(C)(C)NC1CCC(Oc2nc(C)sc2C(=O)N[C@@H]2CCCN(c3cc(C4=CC(=O)OC4)n4ncnc(N)c34)C2)CC1 (stereo partly drawn) [Example 1001, (R)—N-(1-(4-amino-7-(5-oxo-2,5-dihydrofuran-3-yl)pyrrolo[2,1-f][1,2,4]triazin-5-yl)piperidin-3-yl)-2-methyl-4-((4-(tert-pentylamino)cyclohexyl)oxy)thiazole-5-carboxamide]
0.5 | CCC(C)(C)NC1CCC(Oc2nc(C)sc2C(=O)N[C@@H]2CCCN(c3cc(-c4ccc(C(N)=O)c(F)n4)n4ncnc(N)c34)C2)CC1 (stereo partly drawn) [Example 1055, (R)—N-(1-(4-amino-7-(5-carbamoyl-6-fluoropyridin-2-yl)pyrrolo[2,1-f][1,2,4]triazin-5-yl)piperidin-3-yl)-2-methyl-4-((4-(tert-pentylamino)cyclohexyl)oxy)thiazole-5-carboxamide]
